This note sets out measurements from patent WO2019242687A1, “1,3-dioxane-4,6-dione compound, and preparation method, pharmaceutical composition, and application thereof” (Shanghai Institute of Materia Medica of CAS, priority 2018, dated 2018).

This test addresses T1, SIRT1 F414A (Homo sapiens, UniProt Q96EB6, F414A).
T1 construct: made in house
T1 sequence (Q96EB6 1-747 F414A): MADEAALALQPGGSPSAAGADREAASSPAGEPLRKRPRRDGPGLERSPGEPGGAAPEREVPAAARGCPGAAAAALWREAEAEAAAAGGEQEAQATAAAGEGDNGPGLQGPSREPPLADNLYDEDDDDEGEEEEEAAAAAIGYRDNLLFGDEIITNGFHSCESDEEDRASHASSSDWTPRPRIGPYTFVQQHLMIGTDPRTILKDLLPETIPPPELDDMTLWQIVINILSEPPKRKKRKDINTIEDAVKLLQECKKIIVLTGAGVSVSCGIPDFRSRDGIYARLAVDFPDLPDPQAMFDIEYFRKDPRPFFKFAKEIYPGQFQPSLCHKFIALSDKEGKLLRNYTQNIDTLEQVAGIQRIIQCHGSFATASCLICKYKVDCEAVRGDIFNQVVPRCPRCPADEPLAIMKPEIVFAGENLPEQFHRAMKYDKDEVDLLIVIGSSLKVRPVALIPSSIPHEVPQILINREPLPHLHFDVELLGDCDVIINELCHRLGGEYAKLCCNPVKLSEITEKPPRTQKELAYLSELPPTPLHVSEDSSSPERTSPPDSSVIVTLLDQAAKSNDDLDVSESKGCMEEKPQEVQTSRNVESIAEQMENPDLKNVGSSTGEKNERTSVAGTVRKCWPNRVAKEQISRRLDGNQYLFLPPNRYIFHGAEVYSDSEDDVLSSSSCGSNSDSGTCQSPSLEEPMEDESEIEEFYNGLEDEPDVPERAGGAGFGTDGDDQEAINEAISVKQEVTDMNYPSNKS
Nature of the test: Inhibitory constant on SIRT1 mutant F414A. The class given is biochemical.

For orientation: Ki means a measure of affinity in units of concentration, obtained from inhibition or displacement. Higher therefore signals weaker binding. Consider `COc1cc(C=C2C(=O)OC(c3ccccc3)OC2=O)cc(Br)c1O` (centres unmarked) [Compound S3, 5-(3-bromo-4-hydroxy-5-methoxybenzylidene) -2-phenyl-1,3-dioxane-4,6-dione], for which the affinity, expressed as Ki, was 25.5 µM. The “effect of mutation on inhibitory activity of compound” value (compared with the other mutants) was “影响最大”.
